# Source: patent US11130762B2, “Azaaryl derivative, preparation method therefor, and application thereof for use in pharmacy” (Abbisko Therapeutics Co., Ltd., priority 2017, dated 2021)
# Read-outs that look alike come from different tables or passages of the source.
# Key:
# [1] = tested on: M-NFS-60 mouse myeloid leukemia lymphocytes; assay: CSF-1R-related cell proliferation experiment (Cell Titer Glo), M-NFS-60 cells with M-CSF; assay type: cell-based; conditions: Lymphocyte, 72 h, 3 days, CTG, * = average of multiple tests
# Procedure: C. CSF-1R-Related Cell Proliferation Experiment
# Functional effects of compounds on cell proliferation were evaluated by using Cell Titer Glo (CTG) study in the present invention. M-NFS-60 mouse myeloid leukemia lymphocytes (cat. No. CCBJ078) from National Institutes For Food and Drug Control were cultured in the incubator under conditions of RPMI 1640 (Gibco, cat. No. 11875-119), 10% fetal bovine serum (Gibco, 10099-141), human 10 ng/mL M-CSF macrophage colony-stimulating factor (R&D, cat. No. MVN0915101), 37° C., and 5% CO2. Since ATP is an index for viable cell metabolism, CTG (Promega, #G7573) reagent is a homogeneous detection method for detecting the number of viable cells in the culture by quantifying ATP. Therefore, compound-mediated inhibition for cell proliferation/survival was evaluated by quantifying ATP content in cells, and the specific experimental process was as follows:
# 1. The cells were plated into a tissue-culture-medium-treated 96-well plate (Costar #3904) with 5,000 cells/well/80 μL fresh culture medium;
# 2. 24 hours later, 10 μL culture medium containing testing compound with 10-fold of final concentration was added to each well;
# 3. 10 μL of culture medium containing M-CSF with 10-fold of the final concentration was then added to each well;
# 4. dosage effect was evaluated by testing the 3-fold serial dilutions of the compound;
# (§1) 5. after the cells were incubated for 3 days at 37° C. and 5% CO2, the inhibition on cell survival was quantified after 50 μL of CTG was added and the luminescence assay was performed;
# (§2) 6. the compound concentration leading to half maximal inhibitory (IC50) and the compound concentration leading to absolute half maximal inhibitory (Absolute IC50) were measured by a plate reader (M1000, Tecan) and a four-parameter curve fit in Graphpad Prism 7.
# CSF-1R = CSF-1R (Homo sapiens, UniProt P07333); assay: CSF-1R in vitro biochemical kinase study (ADP-Glo assay); conditions: 500 μM ATP, * = average of multiple tests, read-out: Enzymatic experiment CSF1R IC50
# Chain of CSF-1R (P07333 20-972): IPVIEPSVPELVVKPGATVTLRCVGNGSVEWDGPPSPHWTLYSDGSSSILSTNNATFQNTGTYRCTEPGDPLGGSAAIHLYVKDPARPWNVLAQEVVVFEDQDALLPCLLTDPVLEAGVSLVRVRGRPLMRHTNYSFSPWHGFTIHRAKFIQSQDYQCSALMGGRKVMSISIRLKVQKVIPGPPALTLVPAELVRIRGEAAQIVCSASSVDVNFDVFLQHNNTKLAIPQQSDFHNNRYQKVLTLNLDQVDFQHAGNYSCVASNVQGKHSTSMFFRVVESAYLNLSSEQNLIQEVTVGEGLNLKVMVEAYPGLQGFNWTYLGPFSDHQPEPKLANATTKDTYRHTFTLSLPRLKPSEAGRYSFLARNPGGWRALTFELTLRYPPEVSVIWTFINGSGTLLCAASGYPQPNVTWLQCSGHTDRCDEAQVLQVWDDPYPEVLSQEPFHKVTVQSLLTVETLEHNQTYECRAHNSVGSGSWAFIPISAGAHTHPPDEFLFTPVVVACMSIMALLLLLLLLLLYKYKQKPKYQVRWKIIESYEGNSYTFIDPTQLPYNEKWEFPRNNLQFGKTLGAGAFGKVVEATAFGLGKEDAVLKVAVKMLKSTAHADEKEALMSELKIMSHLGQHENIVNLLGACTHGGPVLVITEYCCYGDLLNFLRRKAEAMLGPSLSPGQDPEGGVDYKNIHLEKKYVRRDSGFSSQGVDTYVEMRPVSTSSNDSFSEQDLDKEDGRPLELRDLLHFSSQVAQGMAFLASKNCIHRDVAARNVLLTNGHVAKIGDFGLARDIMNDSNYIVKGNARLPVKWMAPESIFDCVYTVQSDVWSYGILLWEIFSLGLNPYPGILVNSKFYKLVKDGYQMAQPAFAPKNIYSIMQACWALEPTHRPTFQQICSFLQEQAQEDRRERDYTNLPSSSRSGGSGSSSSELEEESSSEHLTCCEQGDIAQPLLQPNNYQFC
# Procedure: A. CSF-1R In Vitro Biochemical Kinase Study
# In the present invention, the inhibitory activity of compounds against the CSF-1R activity was determined by using CSF-1R ADP-Glo assay. The compound-mediated inhibition effect was achieved by inhibiting the production of ADP from consumption of ATP, and the activities of compounds were evaluated by using the ADP-Glo kit (Promega, cat. No. V9101). The specific experimental process was as follows:
# 1. The kinase reaction performed in the present invention was carried out in a 384-well plate (Perkinelmer, cat. No. 6007290), 3.95 nM of CSF-1R, 500 μM of ATP, and 0.2 mg/mL of polypeptide (Poly (Glu4, Try1), Sigma, cat. No. P0275) were respectively weighed and added to each well:
# 2. following reagents were then added to each well to reach the final reaction system: 40 mM Tris, pH 7.5, 20 mM MgCl2, 0.01% Triton X-100, 0.1 mg/mL BSA, 2.5 mM DTT, and 0.1% DMSO;
# 3. the reaction was conducted at 30° C. for 60 min;
# 4. then an equal volume of stop solution (ADP-Glo) was added to the kinase reaction system;
# 5. the mixed solution was incubated at 25° C. for 60 min, and the kinase reaction was then terminated;
# 6. a two-fold volume of detection reagent was then added to each well;
# 7. the mixed solution was incubated at 25° C. for 30 min;
# 8. the compound IC50 value was measured by using a plate reader (Tecan, M1000) and a four-parameter curve was generated in Graphpad Prism.
# [2] = tested on: M-07e human cytomegalic leukemia cells; assay: Cell proliferation (Cell Titer Glo), M-07e cells with SCF (KIT); assay type: cell-based; conditions: 72 h, 3 days, CTG, * = average of multiple tests, read-out: Cytological experiment KIT IC50
# Procedure: (§3) D. CSF-1R-Related Cell Proliferation Experiment
# (§4) Functional effects of compounds on the proliferation of several cell lines were evaluated by Cell Titer Glo (CTG) studies in the present invention, and effects of the compounds on the proliferation of different cells were evaluated to determine the selectivity degree of the compounds. In the experiment, M-07e human cytomegalic leukemia cells (cat. No. CBP60791) from Nanjing Kebai Biotechnology Co., Ltd. were cultured in an incubator under conditions of RPMI1640 (Gibco, cat. No. 11875-119), 20% fetal bovine serum (Gibco, 10099-141), human 10 ng/mL GM-CSF granulocyte macrophage colony-stimulating factors (R&D, cat. No. 215-GM-010), 37° C., and 5% CO2; and Kasumi-1 human acute myeloblastic leukemia cells (cat. No. CBP60524) were cultured in an incubator under conditions of RPMI1640 (Gibco, cat. No. 11875-119), 20% fetal bovine serum (Gibco, 10099-141), 37° C., and 5% CO2: NCI-H1703 human non-small cell lung squamous carcinoma cells (cat. No. CBP60115) were cultured in an incubator under conditions of RPMI1640 (Gibco, cat. No. 11875-119), 10% fetal bovine serum (Gibco, 10099-141), 37° C., and 5% CO2; MV-4-11 human acute monocytic leukemia cells (cat. No. CBP60522) were cultured in an incubator under conditions of IMDM (Invitrogen, cat. No. 12440053), 20% fetal bovine serum (Gibco, 10099-141), 37° C., and 5% CO2. Since ATP is an index for viable cell metabolism, CTG (Promega, #G7573) reagent is a homogeneous detection method for detecting the number of viable cells in the culture by quantifying ATP. Therefore, compound-mediated inhibition for cell proliferation/survival was evaluated by quantifying ATP content in cells, and the specific experimental process was as follows.
# I) M-07e Human Cytomegalic Leukemia Cell:
# 1. The cells were plated into a tissue-culture-medium-treated 96-well plate (Costar #3904) with 3500 cells/well/80 μL fresh culture medium, and cultured for 24 hrs;
# (§5) 2. the next day, 10 μL of culture medium containing testing compound with 10-fold of final concentration was added to each well:
# 3. 10 μL of culture medium containing SCF recombinant human stem cell factor (R&D, cat. No. 7466-SC-010) with 10-fold of the final concentration was then added to each well;
# 4. the dosage effect was evaluated by testing 4-fold serial dilutions of the compound, which started from 18 μM;
# as §1, §2
# [3] = tested on: MV-4-11 human acute monocytic leukemia cells; assay: Cell proliferation (Cell Titer Glo), MV-4-11 cells (FLT3); assay type: cell-based; conditions: MV4-11, 72 h, 3 days, CTG, * = average of multiple tests, read-out: Cytological experiment FLT3 IC50
# Procedure: as §3, §4
# III) MV-4-11 Human Acute Monocytic Leukemia Cell
# 1. The cells were inoculated into a tissue-culture-medium-treated 96-well plate (Costar #3904) with 5000 cells/well/90 μL fresh culture medium, and cultured for 24 hrs:
# 2. the next day, 10 μL of culture medium containing testing compound with 10-fold of final concentration was added to each well;
# (§6) 3. the dosage effect was evaluated by testing 3-fold serial dilutions of the compound, which started from 18 μM;
# 4. after the cells were incubated for 3 days at 37° C. and 5% CO2, the inhibition on cell survival was quantified after 50 μL of CTG was added and the luminescence assay was performed;
# (§7) 5. the compound concentration leading to half maximal inhibitory (IC50) and the compound concentration leading to absolute half maximal inhibitory (Absolute IC50) were measured by a plate reader (M1000, Tecan) and a four-parameter curve fit in Graphpad Prism 7.
# [4] = tested on: NCI-H1703 human non-small cell lung squamous carcinoma cells; assay: Cell proliferation (Cell Titer Glo), NCI-H1703 cells (PDGFRA); assay type: cell-based; conditions: 72 h, 3 days, CTG, * = average of multiple tests, read-out: Cytological experiment PDGFRA IC50
# Procedure: as §3, §4
# II) NCI-H1703 Human Non-Small Cell Lung Squamous Carcinoma Cell
# 1. The cells were inoculated into a tissue-culture-medium-treated 96-well plate (Costar #3904) with 5000 cells/well/90 μL fresh culture medium, and cultured for 24 hrs;
# as §5, §6
# 4. after the cells were incubated for 3 days at 37° C. and 5% CO2, the inhibition on cell survival was quantified after 50 μL of CTG was added and the luminescence assay was performed:
# as §7
# [5] = read-out: Cytological experiment CSF1R IC50
# [6] = absolute half maximal inhibition, read-out: Cytological experiment CSF-1R Absolute IC50
Compound,"IC50 [1, 5] [nM]","IC50 [1, 6] [nM]",IC50 (CSF-1R) [nM],IC50 [2] [nM],IC50 [3] [nM],IC50 [4] [nM]
"Cc1nc(-c2cnc3n(c2=O)CCCN3C2CCC2)ccc1Oc1ccnc(-c2cnn(C)c2)c1 [Example 9, 9-cyclobutyl-3-(6-methyl-5-((2-(1-methyl-1H-pyrazol-4-yl)pyridin-4-yl)oxy)pyridin-2-yl)-6,7,8,9-tetrahydro-4H-pyrimido[1,2-a]pyrimidin-4-one]",64.8,58.9,68.3,321,2000,1580
Cc1nc(-c2cnc3n(c2=O)CC[C@@H]2CCCN32)ccc1Oc1ccnc(-c2cnn(C)c2)c1 [Example 12],85.2,77.8,107,755,> 18000,> 2000
"CCCN1CCCn2c1ncc(-c1ccc(Oc3ccnc(-c4cnn(C)c4)c3)c(C)n1)c2=O [Example 11, 3-(6-methyl-5-((2-(1-methyl-1H-pyrazol-4-yl)pyridin-4-yl)oxy)pyridin-2-yl)-9-propyl-6,7,8,9-tetrahydro-4H-pyrimido [1,2-a]pyrimidin-4-one]",222,273,319,> 2000,> 6000,> 6000
"Cc1nc(-c2cnc3n(c2=O)CCC(C)N3C)ccc1Oc1ccnc(-c2cnn(C)c2)c1 (stereo not drawn) [Example 10, 8,9-dimethyl-3-(6-methyl-5-((2-(1-methyl-1H-pyrazol-4-yl)pyridin-4-yl)oxy)pyridin-2-yl)-6,7,8,9-tetrahydro-4H-pyrimido[1,2-a]pyrimidin-4-one]",134,124,108,> 18000,> 18000,> 18000

# More lines, now with the values ahead:
"IC50 [1, 5] [nM]","IC50 [1, 6] [nM]",IC50 (CSF-1R) [nM],IC50 [2] [nM],IC50 [3] [nM],IC50 [4] [nM],Compound
498,488,84.2,> 1120,> 18000,> 2000,"Cc1nc(-c2cnc3n(c2=O)CCCN3C)ccc1Oc1ccnc(-c2cn[nH]c2)c1 [Example 7, 3-(5-((2-(1H-pyrazol-4-yl)pyridin-4-yl)oxy)-6-methylpyridin-2-yl)-9-methyl-6,7,8,9-tetrahydro-4H-pyrimido[1,2-a] pyrimidin-4-one]"
249,185,157,–,–,–,"Cc1nc(-c2cnc3n(c2=O)CCN3C)ccc1Oc1ccnc(-c2cnn(C)c2)c1 [Example 3, 1-methyl-6-(6-methyl-5-((2-(1-methyl-1H-pyrazol-4-yl)pyridin-4-yl)oxy)pyridin-2-yl)-2,3-dihydroimidazo[1,2-a]pyrimidin-5(1H)-one]"
151,361,77.7,–,–,–,CCn1cc(-c2cc(Oc3ccc(-c4cnc5n(c4=O)CCCN5C)nc3C)ccn2)cn1 [Example 8]
> 2000,710,296,–,–,–,"Cc1nc(-c2cnc3n(c2=O)CC[C@@H](C)N3)ccc1Oc1ccnc(-c2cnn(C)c2)c1 [Example 6, (R)-8-methyl-3-(6-methyl-5-((2-(1-methyl-1H-pyrazol-4-yl)pyridin-4-yl)oxy)pyridin-2-yl)-6,7,8,9-tetrahydro-4H-pyrimido[1,2-a]pyrimidin-4-one]"
